# Values of other authors in US20190274971A1, “USE OF AMERICAN GINSENG TO […]-INDUCED INTOXICATION” (ENGEN MEDICAL CORPORATION, priority 2018, published 2019).
# Target: CB1 receptor (Homo sapiens, UniProt P21554)
# Conditions: literature statement (Leonti et al., Biochemical Pharmacology 79(12):1815-1826, 2010)
# Chain of CB1 receptor (P21554 whole entry): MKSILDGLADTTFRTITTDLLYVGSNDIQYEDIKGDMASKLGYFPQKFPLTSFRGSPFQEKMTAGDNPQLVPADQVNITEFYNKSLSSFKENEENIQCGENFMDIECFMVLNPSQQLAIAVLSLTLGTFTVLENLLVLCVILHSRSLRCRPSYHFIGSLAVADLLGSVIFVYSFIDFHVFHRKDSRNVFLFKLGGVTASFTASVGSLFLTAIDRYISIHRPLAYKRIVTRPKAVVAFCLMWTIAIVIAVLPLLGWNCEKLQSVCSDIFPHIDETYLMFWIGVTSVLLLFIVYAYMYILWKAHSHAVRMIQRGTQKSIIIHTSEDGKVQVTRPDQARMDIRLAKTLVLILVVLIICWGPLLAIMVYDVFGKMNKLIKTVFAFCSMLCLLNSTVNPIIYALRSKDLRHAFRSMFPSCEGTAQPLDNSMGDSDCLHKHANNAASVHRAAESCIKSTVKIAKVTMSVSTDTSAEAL
smiles,measurement,value
C=C[C@H](O)C#CC#CC/C=C\CCCCCCC [falcarinol],activity at the CB1 receptor,potent inverse agonist
